Test results: BindingDB's records for patent US20250145606 (Arcus Biosciences, 2025)

Columns and labels:
Assay in all cases: Inhibition of c-Kit, PDGFRα, PDGFRβ, CSFIR and FLT3 Kinase Activity Assay
[1] = target: Macrophage colony-stimulating factor 1 receptor (Homo sapiens, UniProt P07333)
Procedure: (§1) On the day of the assay, compounds were solubilized in DMSO and dispensed into a 384-well white Opti-plate (PerkinElmer, catalog #6007290) to generate a 22 point 1:2 titration. Enzyme solution was prepared for each of the tyrosine kinases in 50 mM HEPES, pH 7.4, 5 mM MgCl2 for c-Kit or 10 mM MgCl2 for FLT3, CSFIR, PDGFRa and PDGFRβ, 2 mM MnCl2, 0.01% Brij-35 and 0.01% BSA. Working enzyme concentrations were prepared for c-Kit at 2 nM (2×), PDGFRa and PDGFR at 10 nM (2×), CSFIR at 2 nM (2×) and FLT3 at 0.4 nM (2×). Five microliters of enzyme dilution of each tyrosine kinase were added to their respective 384-well white Opti-plate pre-dispensed with compound and allowed to incubate for 1 h at rt. Utilizing the same enzyme buffer recipe, 2x substrate mixes were prepared for each enzyme as follows: For c-Kit, 1.6 μM (2×) TK substrate and 16 μM (2×) ATP (Promega, catalog #V915). For PDGFRα, 3.2 μM TK substrate and 1 μM ATP. For PDGFRβ, 3.2 μM TK substrate and 40 μM ATP. For CSFIR, […] TK substrate and 20 μM ATP. For FLT3, 3.2 μM TK substrate and 100 μM ATP. Reactions were initiated by addition of 5 μL of the respective 2x substrate mix to each well of the plates containing the respective tyrosine kinase enzymes and were allowed to proceed for 120 minutes at rt, except for FLT3, the reaction time is 45 min. Following the reaction, 10 μL of detection mix consisting of 0.2 μM (2×) of Streptavidin-XL665 and 2 μM (2×) of TK-Antibody-Cryptate prepared in detection buffer (Part 62SDBRDF of KinEASE assay kit) was added and then allowed to incubate for 60 min. The TR-FRET signal was quantified by measuring the ratio of emission at 665 nm to 620 nm after excitation at 320 nm by reading on a PerkinElmer Envision multimode reader. Compound potencies (IC50 values) were determined using a standard 4-parameter non-linear regression fit.

[2] = target: Platelet-derived growth factor receptor beta (Homo sapiens, UniProt P09619)
Procedure: as §1

[3] = target: Platelet-derived growth factor receptor alpha (Homo sapiens, UniProt P16234)
Procedure: as §1

[4] = target: Mast/stem cell growth factor receptor Kit (Homo sapiens, UniProt P10721)
Procedure: as §1

Chain of Platelet-derived growth factor receptor alpha (P16234 whole entry): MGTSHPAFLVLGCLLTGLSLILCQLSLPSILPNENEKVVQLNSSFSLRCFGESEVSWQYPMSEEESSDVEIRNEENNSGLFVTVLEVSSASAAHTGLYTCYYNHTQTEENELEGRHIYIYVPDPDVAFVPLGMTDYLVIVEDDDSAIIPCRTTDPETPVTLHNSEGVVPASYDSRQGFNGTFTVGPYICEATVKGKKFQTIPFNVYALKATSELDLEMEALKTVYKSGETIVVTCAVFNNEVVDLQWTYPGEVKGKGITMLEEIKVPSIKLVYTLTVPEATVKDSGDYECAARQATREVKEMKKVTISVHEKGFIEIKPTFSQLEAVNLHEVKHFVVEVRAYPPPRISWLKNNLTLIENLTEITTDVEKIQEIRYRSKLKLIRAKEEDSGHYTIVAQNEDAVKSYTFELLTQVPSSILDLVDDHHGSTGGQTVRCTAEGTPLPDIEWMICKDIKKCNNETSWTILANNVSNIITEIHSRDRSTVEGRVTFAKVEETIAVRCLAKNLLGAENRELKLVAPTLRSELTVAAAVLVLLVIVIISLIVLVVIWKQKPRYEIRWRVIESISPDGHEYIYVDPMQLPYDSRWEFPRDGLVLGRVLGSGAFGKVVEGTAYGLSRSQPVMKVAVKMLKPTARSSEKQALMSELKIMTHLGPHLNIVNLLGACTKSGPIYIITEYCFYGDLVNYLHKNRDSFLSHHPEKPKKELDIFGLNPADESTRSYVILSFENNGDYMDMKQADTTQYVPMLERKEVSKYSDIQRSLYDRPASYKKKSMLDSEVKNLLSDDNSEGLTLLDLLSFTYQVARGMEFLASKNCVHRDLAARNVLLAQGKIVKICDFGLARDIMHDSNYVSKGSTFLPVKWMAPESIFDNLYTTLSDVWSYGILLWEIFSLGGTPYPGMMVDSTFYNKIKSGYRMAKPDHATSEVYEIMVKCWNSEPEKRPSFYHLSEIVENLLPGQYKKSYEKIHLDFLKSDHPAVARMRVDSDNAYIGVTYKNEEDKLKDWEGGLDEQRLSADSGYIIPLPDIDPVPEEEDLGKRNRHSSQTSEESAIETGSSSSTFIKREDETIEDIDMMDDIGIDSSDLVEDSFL
Chain of Macrophage colony-stimulating factor 1 receptor (P07333 whole entry): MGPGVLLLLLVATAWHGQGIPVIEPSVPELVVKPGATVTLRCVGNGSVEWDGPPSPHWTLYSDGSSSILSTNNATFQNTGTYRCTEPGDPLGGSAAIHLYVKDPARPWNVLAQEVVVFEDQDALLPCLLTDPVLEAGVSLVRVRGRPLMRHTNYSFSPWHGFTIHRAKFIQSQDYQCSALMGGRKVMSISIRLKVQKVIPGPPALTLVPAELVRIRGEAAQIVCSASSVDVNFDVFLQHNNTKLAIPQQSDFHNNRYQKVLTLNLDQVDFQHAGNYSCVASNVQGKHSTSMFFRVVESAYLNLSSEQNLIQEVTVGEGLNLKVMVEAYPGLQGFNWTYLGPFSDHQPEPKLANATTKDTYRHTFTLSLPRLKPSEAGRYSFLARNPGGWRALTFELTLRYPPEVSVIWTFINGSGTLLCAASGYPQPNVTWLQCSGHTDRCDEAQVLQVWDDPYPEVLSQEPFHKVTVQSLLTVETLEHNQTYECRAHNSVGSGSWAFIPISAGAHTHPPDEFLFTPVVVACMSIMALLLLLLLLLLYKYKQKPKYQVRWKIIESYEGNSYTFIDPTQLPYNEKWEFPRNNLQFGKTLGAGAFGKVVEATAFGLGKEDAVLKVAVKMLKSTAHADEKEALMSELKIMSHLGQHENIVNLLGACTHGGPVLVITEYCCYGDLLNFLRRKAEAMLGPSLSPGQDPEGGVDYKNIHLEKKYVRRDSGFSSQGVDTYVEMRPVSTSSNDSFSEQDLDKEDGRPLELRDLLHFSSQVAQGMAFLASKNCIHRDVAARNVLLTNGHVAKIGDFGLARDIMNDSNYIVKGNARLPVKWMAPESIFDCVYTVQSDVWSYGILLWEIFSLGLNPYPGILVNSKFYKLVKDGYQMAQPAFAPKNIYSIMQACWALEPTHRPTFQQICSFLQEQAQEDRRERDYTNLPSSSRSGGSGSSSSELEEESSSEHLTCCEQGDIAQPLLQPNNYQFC
Chain of Platelet-derived growth factor receptor beta (P09619 whole entry): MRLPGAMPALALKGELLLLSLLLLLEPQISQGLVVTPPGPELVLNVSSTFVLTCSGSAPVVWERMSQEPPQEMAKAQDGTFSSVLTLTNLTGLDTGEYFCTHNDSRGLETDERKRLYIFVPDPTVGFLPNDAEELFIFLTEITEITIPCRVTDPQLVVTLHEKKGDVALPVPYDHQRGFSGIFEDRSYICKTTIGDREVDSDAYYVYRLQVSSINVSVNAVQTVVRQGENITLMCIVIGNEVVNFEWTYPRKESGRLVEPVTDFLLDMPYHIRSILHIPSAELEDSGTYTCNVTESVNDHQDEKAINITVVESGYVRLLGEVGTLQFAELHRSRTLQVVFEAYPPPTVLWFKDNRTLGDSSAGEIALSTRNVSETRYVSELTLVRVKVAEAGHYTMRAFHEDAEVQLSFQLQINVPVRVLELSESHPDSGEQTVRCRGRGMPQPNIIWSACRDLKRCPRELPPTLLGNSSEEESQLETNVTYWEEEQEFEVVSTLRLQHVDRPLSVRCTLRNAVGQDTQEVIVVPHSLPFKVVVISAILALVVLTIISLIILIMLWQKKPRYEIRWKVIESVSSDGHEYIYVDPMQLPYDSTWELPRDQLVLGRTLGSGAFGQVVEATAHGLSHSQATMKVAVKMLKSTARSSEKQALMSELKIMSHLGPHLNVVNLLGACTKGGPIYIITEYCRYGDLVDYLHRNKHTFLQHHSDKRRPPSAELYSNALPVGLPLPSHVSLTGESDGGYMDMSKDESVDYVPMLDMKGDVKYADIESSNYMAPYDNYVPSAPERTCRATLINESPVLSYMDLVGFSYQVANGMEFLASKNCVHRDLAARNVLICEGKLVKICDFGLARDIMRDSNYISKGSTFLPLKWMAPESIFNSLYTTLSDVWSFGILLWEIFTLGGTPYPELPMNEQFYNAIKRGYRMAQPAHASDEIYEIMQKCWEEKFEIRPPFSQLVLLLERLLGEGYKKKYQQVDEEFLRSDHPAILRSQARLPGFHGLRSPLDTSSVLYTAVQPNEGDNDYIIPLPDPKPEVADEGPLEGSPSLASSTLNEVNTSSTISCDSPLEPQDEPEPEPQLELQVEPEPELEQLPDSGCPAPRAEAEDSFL
Chain of Mast/stem cell growth factor receptor Kit (P10721 whole entry): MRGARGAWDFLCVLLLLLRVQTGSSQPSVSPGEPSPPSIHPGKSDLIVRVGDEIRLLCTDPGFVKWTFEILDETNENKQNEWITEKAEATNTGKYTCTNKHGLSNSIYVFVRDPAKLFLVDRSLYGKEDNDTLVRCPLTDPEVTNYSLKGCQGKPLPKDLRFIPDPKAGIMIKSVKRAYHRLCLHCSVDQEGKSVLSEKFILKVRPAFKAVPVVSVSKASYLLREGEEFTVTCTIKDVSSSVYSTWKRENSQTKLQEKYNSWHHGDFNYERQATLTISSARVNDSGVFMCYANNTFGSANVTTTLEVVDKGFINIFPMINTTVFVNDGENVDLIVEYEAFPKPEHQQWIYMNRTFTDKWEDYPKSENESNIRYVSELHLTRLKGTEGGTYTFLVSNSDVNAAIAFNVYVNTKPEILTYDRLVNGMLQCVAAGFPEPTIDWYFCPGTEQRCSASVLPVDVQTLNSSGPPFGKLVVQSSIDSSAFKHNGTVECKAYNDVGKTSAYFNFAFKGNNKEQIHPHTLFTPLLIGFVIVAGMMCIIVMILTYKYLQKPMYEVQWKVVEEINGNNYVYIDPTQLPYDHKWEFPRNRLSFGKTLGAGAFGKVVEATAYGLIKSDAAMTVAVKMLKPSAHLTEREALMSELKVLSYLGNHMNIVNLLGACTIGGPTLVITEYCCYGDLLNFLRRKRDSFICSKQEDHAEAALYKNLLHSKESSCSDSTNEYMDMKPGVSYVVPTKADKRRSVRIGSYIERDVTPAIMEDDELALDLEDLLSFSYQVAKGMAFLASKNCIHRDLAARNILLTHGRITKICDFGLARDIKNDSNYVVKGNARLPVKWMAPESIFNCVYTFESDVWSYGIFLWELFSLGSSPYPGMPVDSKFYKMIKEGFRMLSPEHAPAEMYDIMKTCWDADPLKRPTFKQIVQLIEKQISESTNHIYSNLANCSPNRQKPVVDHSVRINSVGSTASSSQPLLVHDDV

SMILES	IC50 [1]	IC50 [2]	IC50 [3]	IC50 [4]
Cc1ncc(C(=O)Nc2cc(C(=O)NCc3cccnc3)c(F)cc2C)s1 [US20250145606, Example 12]	> 1000 nM	> 1000 nM	> 1000 nM	–
Cc1cc(F)c(C(=O)Nc2cn[nH]c2)cc1NC(=O)c1cnc(N)s1 [US20250145606, Example 157]	> 1000 nM	> 1000 nM	> 1000 nM	< 100 nM
